We go through seven compounds from article PMC3981784 (PLoS ONE, 2014).

For one data set, the system named is A/WSN/33 (H1N1). The data set is described as follows: Hemagglutination inhibition assay with chicken red blood cells. To be noted: Influenza A virus, Erythrocyte, in Gallus gallus, read-out: EC50, inhibition of virus-induced hemagglutination.
The subject of data set [1] is recombinant HA of A/Puerto Rico/8/1934 (H1N1), A/California/04/2009 (H1N1), A/Netherlands/219/03 (H7N7), and A/Anhui/1/2005 (H5N1). It is filed as biochemical, influenza A virus. As to conditions: HA incubated on ice 30 min with compound; four HA subtypes.
In data set [2] the test system is purified influenza virus A/WSN/33. Nature of the data set: Atomic force microscopy (AFM) of virus particles. As to conditions: 50 μM; for aggregation of viral particles (AFM images): 1 hour on ice; for heights of virions (AFM): versus DMSO-treated virions.
The test system of the next data set is influenza virus A/WSN/33. The data set is described as follows: Immunofluorescence microscopy of intra-nuclear nucleoprotein accumulation (virus entry) in MDCK cells. It is filed as cell-based.
Data set [3] deals with hemagglutinin of A/Puerto Rico/8/1934 (H1N1), A/California/04/2009 (H1N1), A/Netherlands/219/03 (H7N7), and A/Anhui/1/2005 (H5N1). The class given is binding, influenza A virus. As to conditions: four HA subtypes.
Data set [4] deals with hemagglutinin derived from influenza A/California/04/2009(H1N1) (Influenza A virus, UniProt C3W5S1). The data set is described as follows: Competition binding assay with sialic acid (native PAGE band gray scale). As to conditions: for HA aggregation (decrease of relative density of HA monomer) / HA aggregation (decrease of relative density of HA monomer), percent: 6 μM PGG; for hemagglutinin aggregation (native PAGE lane): 600 μM SA alone (Lane 2), 6 μM PGG alone (Lane 3). It is filed as biochemical.
Sequence of hemagglutinin derived from influenza A/California/04/2009(H1N1) (C3W5S1 entry or part of it, added parts left off): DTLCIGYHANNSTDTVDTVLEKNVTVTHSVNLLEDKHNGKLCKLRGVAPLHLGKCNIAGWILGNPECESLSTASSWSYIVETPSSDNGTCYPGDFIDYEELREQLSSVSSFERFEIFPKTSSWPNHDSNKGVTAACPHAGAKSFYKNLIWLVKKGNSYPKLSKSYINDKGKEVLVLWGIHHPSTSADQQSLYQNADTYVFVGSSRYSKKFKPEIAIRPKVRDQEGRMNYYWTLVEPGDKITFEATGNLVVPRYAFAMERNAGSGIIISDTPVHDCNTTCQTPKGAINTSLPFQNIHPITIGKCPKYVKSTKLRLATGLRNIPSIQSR

In the next data set the test system is MDCK cells. Also on record: method as in PMID 21479599, PMID 19575286. As to conditions: ref [29], [30], read-out: cytotoxicity EC50; cited from earlier work.
For a further data set, the system named is influenza virus. Also on record: method as in PMID 21479599, PMID 19575286. As to conditions: ref [29], [30]; read-out: active concentration EC50 (anti-influenza virus activity); cited from earlier work.
Data set [5] has as its system purified influenza virus A/WSN/33. To be noted: PGG 25 μM; TritonX-100 0.5% (v/v).

For `O=c1oc2c(O)c(O)cc3c(=O)oc4c(O)c(O)cc1c4c23` [EA, Ellagic acid], the EC50 with A/WSN/33 (H1N1) stood at 446 nM.
The same measure, in the same setting: the figure for `O=C(O[C@@H]1Cc2c(O)cc(O)cc2O[C@@H]1c1cc(O)c(O)c(O)c1)c1cc(O)c(O)c(O)c1` [EGCG, (−)-epigallocatechin-3-gallate] is 430 ± 1 nM.
Regarding `O=C(O)c1cc(O)c(O)c(O)c1` [GA, Gallic acid], the “HA aggregation on native PAGE (HA polymer formation)” value in data set [1] is reported as “not observed”. Moreover, in the data set on A/WSN/33 (H1N1), the EC50 was > 50000 nM. For the same compound, the “aggregation of viral particles (AFM images)” value (“aggregation of viral particles” below) in data set [2] was “dispersive”. Also, the “intra-nuclear accumulation of virus nucleoprotein (NP), virus entry” value (“intra-nuclear accumulation” below) with influenza virus A/WSN/33 was “viral NP was detected in the nucleus”. Besides, the “interactions with HAs (SPR)” value in data set [3] was “No significant interactions”.
`O=C(OC[C@H]1O[C@@H](OC(=O)c2cc(O)c(O)c(O)c2)[C@H](OC(=O)c2cc(O)c(O)c(O)c2)[C@@H](OC(=O)c2cc(O)c(O)c(O)c2)[C@@H]1OC(=O)c1cc(O)c(O)c(O)c1)c1cc(O)c(O)c(O)c1` [PGG, penta-galloyl-glucose]: the EC50 in the data set with A/WSN/33 (H1N1) was 5 ± 2 nM; with MDCK cells, 31500 ± 4600 nM; in the data set with influenza virus, 2510 ± 310 nM. The “aggregation of viral particles” value in data set [2] is reported as “significantly aggregated”. Besides, the “heights of virions (AFM)” value in data set [2] is given as “significantly greater than that of DMSO-treated virions”. The entries for the “HA aggregation (decrease of relative density of HA monomer)” value in [4] (with the presence of 600 μM SA) and in data set [4] (without SA) were 0.22 and 0.33, respectively. Besides, the “HA aggregation (decrease of relative density of HA monomer), percent” value in data set [4] (with the presence of 600 μM SA) is 20.7%; in data set [4] (without SA) it was 33.2%. Further, the “hemagglutinin aggregation (native PAGE lane)” value in data set [4] is given as “increases hemagglutinin aggregation”. Moreover, the “intra-nuclear accumulation” value in the data set with influenza virus A/WSN/33 is “significantly decreased in the number of nucleoprotein-positive nucleus”. Also, the “membrane structures of the virus particles (TEM)” value in data set [5] is reported as “remain undisrupted”.
Turning to `CC(=O)N[C@H]1[C@H]([C@H](O)[C@H](O)CO)OC(O)(C(=O)O)C[C@@H]1O` (stereo partly shown) [SA, Sialic acid, reference compound], the “hemagglutinin aggregation (native PAGE lane)” value in [4] was “reduces hemagglutinin aggregation”.
As to `O=C(OC[C@H]1O[C@@H](OC(=O)c2cc(O)c(O)c(O)c2)[C@H](OC(=O)c2cc(O)c(O)c(O)c2)[C@@H](OC(=O)c2cc(O)c(O)c(O)c2)[C@@H]1O)c1cc(O)c(O)c(O)c1` [TGG, 1,2,3,6-Tetra-O-galloyl-beta-D-glucose], the EC50 with A/WSN/33 (H1N1) came to 1 ± 1 nM. Further, in data set [2], the “aggregation of viral particles” value was “significantly aggregated” and the “heights of virions (AFM)” value was “significantly greater than that of DMSO-treated virions”. Besides, the “intra-nuclear accumulation” value in the data set on influenza virus A/WSN/33 is “significantly decreased in the number of nucleoprotein-positive nucleus”.
Turning to TritonX-100 [reference compound], in data set [5], the “membrane structures of the virus particles (TEM)” value is recorded as “destroyed membrane structures”.
